From ChEMBL document CHEMBL1126133, “2-Nitroimidazole dual-function bioreductive drugs: studies on the effects of regioisomerism and side-chain structural modifications on differential cytotoxicity and radiosensitization by aziridinyl and oxiranyl derivatives” (1992)

Experiments:
[1] = Concentration required to kill 50% of V79-379A cells under N2 (in vitro); assay type: functional, Cricetulus griseus
[2] = Ratio of concentration required to kill 50% aerobic V79-379A cells C50(air) to that of concentration required to kill 50% of cells under N2 C50(N2) was determined; assay type: functional
[3] = Concentration required to kill 50% of aerobic V79-379A cells (in vitro); assay type: functional, Cricetulus griseus
[4] = Radiosensitization of hypoxic V79-379A cells was determined in vitro; expressed as concentration required to give enhancement ratio of 1.6

Row | SMILES | C50 [1] | Ratio [2] | C50 [3] | C1.6 [4]
1 | O=[N+]([O-])c1nccn1CCC1CO1 (stereo not given) | 0.25 mM | 2 | 0.5 mM | –
2 | CC(C)(C(O)Cn1ccnc1[N+](=O)[O-])N1CC1 (stereo not given) | 0.008 mM | 12.5 | 0.1 mM | 0.07 mM
3 | O=[N+]([O-])c1nccn1[C@H]1CCC[C@@H](N2CC2)[C@@H]1O | 0.35 mM | 1 | 0.35 mM | 0.45 mM
4 | CC(O)(CN1CC1)Cn1ccnc1[N+](=O)[O-] (stereo not given) | 0.02 mM | 27.5 | 0.55 mM | –
5 | C[C@@H]([C@H](O)Cn1ccnc1[N+](=O)[O-])N1CC1 | 0.01 mM | 20 | 0.2 mM | 0.12 mM
6 | CC1CN1CC(O)Cn1ccnc1[N+](=O)[O-] (stereo not given) | 0.065 mM | 12.2 | 0.79 mM | 0.08 mM
7 | O=[N+]([O-])c1nccn1[C@@H]1CCC[C@@H]2O[C@@H]21 | 0.18 mM | 1.5 | 0.28 mM | –
8 | CC1(Cn2ccnc2[N+](=O)[O-])CO1 (stereo not given) | 0.2 mM | 1 | 0.2 mM | –
9 | O=[N+]([O-])c1nccn1CCCCC1CO1 (stereo not given) | 0.7 mM | 1.7 | 1.2 mM | –
10 | O=[N+]([O-])c1nccn1CC(O)CCC1CO1 (stereo not given) | 0.4 mM | 1.5 | 0.6 mM | 0.4 mM
11 | CC1OC1Cn1ccnc1[N+](=O)[O-] (stereo not given) | 3.3 mM | 3 | 10 mM | –
12 | O=[N+]([O-])c1nccn1CC(O)C1CO1 (stereo not given) | 0.36 mM | 3.3 | 1.2 mM | 0.2 mM
13 | O=[N+]([O-])c1nccn1CC(O)CN1CC1 (stereo not given) | 0.015 mM | 20 | 0.3 mM | 0.1 mM
14 | O=[N+]([O-])c1ncc[nH]1 [AZOMYCIN] | 0.27 mM | 2 | 0.55 mM | 0.25 mM
